SMILES strings stand for the structures. Calls of active or inactive are those of the source. No cut-off for these calls is given here.

The test system of one assay is MDA-MB-231. The assay can be described thus: Antiproliferative activity against human MDA-MB-231 cells by WST-1 method after 72 hrs. Format: functional, cell-based. To be noted: MDA-MB-231, 72 h. For orientation: Tetrazolium assays rely on reduction of a dye to a coloured formazan, in cell work by metabolically active cells.
In the case of `CCN(CC)CCn1nc2c3c(c4[nH]cnc4cc31)Oc1ccccc1-2`, inhibition was half-maximal at 8.5 µM (IC50).

Compound `Cc1nc2cc3c4c(nn3CCN(C)C)-c3ccccc3Oc4c2[nH]1` displayed an IC50 of 17 µM. Still for that read-out and setting: under `CCN(CC)CCn1nc2c3c(c4[nH]c(C)nc4cc31)Oc1ccccc1-2` stands 18 µM; under `CN(C)CCn1nc2c3c(c4[nH]cnc4cc31)Oc1ccccc1-2`, 6.5 µM.

The next assay deals with MDA-MB-231. Put plainly: Growth inhibition of human MDA-MB-231 cells at 100 uM by WST-1 method after 72 hrs.
Conditions: not given
Format: functional, cell-based.
On to `CN(C)CCNc1cc2nc[nH]c2c2oc3ccccc3c(=O)c12`, for which the result was Active. Still for that read-out and setting: the result for `CCN(CC)CCNc1cc2nc[nH]c2c2oc3ccccc3c(=O)c12` reads “Active”.

Broadly, the IC50 is the midpoint of a concentration-inhibition curve.

(Values after ChEMBL document CHEMBL1142974, “Design, synthesis, and evaluation of the antiproliferative activity of a series of novel fused xanthenone aminoderivatives in human breast cancer cells” (J Med Chem, 2007).)
